Molecular target: T1, protein-protein interaction between SOS1 and KRAS-G12D (Homo sapiens, UniProt Q07889)
T1 construct: The purified GST-SOS1 catalytic domain (residues 564-1049) was first diluted in assay buffer; made in house; host or cells: E. coli BL21 (DE3) for SOS1; E. coli BL21 carrying a BirA plasmid for KRAS-G12D
T1 sequence (Q07889 564-1049): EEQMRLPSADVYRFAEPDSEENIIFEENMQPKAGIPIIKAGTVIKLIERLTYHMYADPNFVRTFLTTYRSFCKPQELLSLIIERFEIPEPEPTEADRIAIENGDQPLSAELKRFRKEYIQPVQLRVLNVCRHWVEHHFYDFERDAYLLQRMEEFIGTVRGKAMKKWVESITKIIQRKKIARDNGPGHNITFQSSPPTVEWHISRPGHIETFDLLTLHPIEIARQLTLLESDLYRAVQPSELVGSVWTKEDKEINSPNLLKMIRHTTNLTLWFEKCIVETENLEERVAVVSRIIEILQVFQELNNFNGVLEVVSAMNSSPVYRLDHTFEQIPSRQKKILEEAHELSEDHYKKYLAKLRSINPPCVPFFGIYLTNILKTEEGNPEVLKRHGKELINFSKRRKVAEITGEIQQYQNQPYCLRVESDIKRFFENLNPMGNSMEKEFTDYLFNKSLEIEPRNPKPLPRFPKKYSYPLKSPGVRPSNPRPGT
Assay: HTRF Based Protein-Protein Interaction Assay
Format: binding
Conditions: HTRF; GST-SOS1 2.5 nM, KRAS-G12D 100 nM, GDP 10 uM; read-out: IC50 value, inhibition of SOS1/KRAS-G12D protein-protein interaction
From the text: A KRAS-G12D and SOS1 binding/interaction assay was designed to measure the interaction between KRAS-G12D and SOS1 proteins. Utilizing HTRF (Homogeneous Time-Resolved Fluorescence) technology, the assay enabled simple and rapid characterization of compound and protein interaction in a high throughput format. This assay was used to examine potency of the compounds in inhibiting the protein-protein interaction between SOS1 and KRAS-G12D. […] Low IC50 values are indicative of high potency of the SOS1 inhibitor compound to disrupt SOS1 and Kras-G12D interaction.
Protein Expression and Purification. The corresponding gene sequence to human SOS1 (residues 564-1049, UniProt ID: Q07889; SEQ ID NO: 2) was synthesized and fused in frame with GST expression vector. After the desired sequence was confirmed, plasmid containing the sequence was transformed into the E. coli strain BL21 (DE3). Bacteria were growing at 37° C. in LB media containing 50 μg/ml Kanamycin to give OD600 of 0.6-0.8. Then 0.2 mM IPTG was added to induce protein expression for 16 hours at 17° C. Bacteria were harvested by centrifugation and stored at −80° C. Bacteria pellets were resuspended in lysis buffer (25 mM Tris-HCl, 500 mM NaCl, 2 mM DTT, 2.3% sucrose, 0.3% dextran-10, 1 mM PMSF, pH 7.5) and lysed using high-pressure homogenizer. The lysate was cleared by centrifugation for 30 minutes (12000 rpm at 4° C.). The supernatant containing GST-SOS1 fragment was purified sequentially through Glutathione column and gel filtration (Hiload 16/600 Superdex […] column, Cytiva). The purified GST-SOS1 fragment was confirmed by SDS-PAGE and stored in 25 mM Tris-HCl, 100 mM NaCl, 1 mM DTT, 2.3% sucrose, 0.3% dextran-10, pH 7.5 at −80° C.
Kras-G12D Protein Purification. The sequence corresponding to human KRAS-G12D (residues 1-169, UniProt P01116-2; SEQ ID NO: 1) was synthesized and fused in frame with His-AVI-TEV vector. The plasmid was transformed into the E. coli strain BL21 (containing a plasmid that can generate BirA enzyme). Bacteria were growing at 37° C. in TB media containing 100 μg/ml ampicillin and 50 μg/ml Kanamycin to give OD600 of 0.6-0.8. The 0.5 mM IPTG and 50 mg/l biotin were added to induce protein expression for 16 hours at 25° C. Bacteria were harvested by centrifugation and stored at −80° C. Bacteria pellets were re-suspended in lysis buffer (20 mM Tris-HCl, 500 mM NaCl, 5 mM MgCl2, 2 mM […], 5% glycerol, pH 8.0) and lysed using high-pressure homogenizer. The lysate was cleared by centrifugation for 30 minutes (12000 rpm at 4° C.). The supernatant containing HIS-AVI-TEV-KRAS-G12D fragment was purified sequentially through Ni-NTA column (SMART), Streptactin column (SMART), and gel filtration (Hiload 16/600 Superdex 75 pg, GE). The purified HIS-AVI-TEV-KRAS-G12D fragment was confirmed by SDS-PAGE and stored in 50 mM HEPES-NaOH, 100 mM NaCl, 1 mM DTT, 5 mM MgCl2, pH 7.5 at −80° C.
Protein-Protein Interaction Assay. An assay buffer containing 50 mM HEPES, pH 7.5, 50 mM NaCl, 0.01% Brij-35, 1 mM TCEP, 0.1% BSA was prepared, and concentration series of test compounds were generated spanning from 0.5 nM to 10 μM over 10 3-fold serial dilutions in a 384-well assay plate at a volume of 20 pL. The purified GST-SOS1 catalytic domain (residues 564-1049) was first diluted in assay buffer and 5 μl of SOS1 (final concentration 2.5 nM in assay mixture) was directly dispensed into compound plates. After a spin down at 1000 RPM for 30 seconds, the SOS1/compound mixture was incubated at 25° C. for 15 minutes to allow the reaction between SOS1 and the compound. A KRAS-G12D mixture was prepared by incubation of avi-tagged Kras-G12D (residue 1-169) and GDP in assay buffer containing 10 mM MgCl2 at room temperature for 10 minutes. A KRAS-G12D and GDP mixture (5 μL) was added to the assay plate (final KRAS-G12D was 100 nM and GDP was 10 uM). The plate was centrifuged at 1000 rpm for 30 sec and incubated at 25° C. for 60 minutes. […]

Structure (SMILES)	IC50
C#C[C@@H](Nc1nc(C)nc2cc(=O)n(C(C)C(F)(F)F)cc12)c1cccc(C(F)(F)F)c1C (mixture of isomers) [Compound 8, 2-methyl-4-(((R)-1-(2-methyl-3-(trifluoromethyl)phenyl)prop-2-yn-1-yl)amino)-6-(1,1,1-trifluoropropan-2-yl)pyrido[4,3-d]pyrimidin-7(6H)-one]	< 100 nM
C#C[C@@H](Nc1nc(C)nc2cc(=O)n(C3(C)CCOC3)cc12)c1cccc(C(F)F)c1C (mixture of isomers) [Compound 13, 4-(((R)-1-(3-(difluoromethyl)-2-methylphenyl)prop-2-yn-1-yl)amino)-2-methyl-6-(3-methyltetrahydrofuran-3-yl)pyrido[4,3-d]pyrimidin-7(6H)-one]	< 100 nM
C#C[C@@H](Nc1nc(C)nc2cc(=O)n(C34CC(C3)C4)cc12)c1cccc2c1CCC2(F)F [Compound 2, (R)-6-(bicyclo[1,1,1]pentan-1-yl)-4-((1-(1,1-difluoro-2,3-dihydro-1H-inden-4-yl)prop-2-yn-1-yl)amino)-2-methylpyrido[4,3-d]pyrimidin-7(6H)-one]	< 100 nM
C#C[C@@H](Nc1nc(C)nc2cc(=O)n(C3CCC3)cc12)c1cccc(C(F)(F)F)c1C [Compound 3, (R)-6-cyclobutyl-2-methyl-4-((1-(2-methyl-3-(trifluoromethyl)phenyl)prop-2-yn-1-yl)amino)pyrido[4,3-d]pyrimidin-7(6H)-one]	< 100 nM
C#C[C@@H](Nc1nc(C)nc2cc(=O)n(C3(C#C)CC3)cc12)c1cccc(C(F)(F)F)c1C [Compound 5, (R)-6-(1-ethynylcyclopropyl)-2-methyl-4-((1-(2-methyl-3-(trifluoromethyl)phenyl)prop-2-yn-1-yl)amino)pyrido[4,3-d]pyrimidin-7(6H)-one]	< 100 nM
C#C[C@@H](Nc1nc(C)nc2cc(=O)n(C3(C#N)CC3)cc12)c1cccc(C(F)(F)F)c1C [Compound 6, (R)-1-(2-methyl-4-((1-(2-methyl-3-(trifluoromethyl)phenyl)prop-2-yn-1-yl)amino)-7-oxopyrido[4,3-d]pyrimidin-6(7H)-yl)cyclopropane-1-carbonitrile]	< 100 nM
C#C[C@@H](Nc1nc(C)nc2cc(=O)n(C3(C)CCOC3)cc12)c1cccc(C(F)(F)F)c1C (stereo partly drawn) [Compound 7, 2-methyl-4-(((R)-1-(2-methyl-3-(trifluoromethyl)phenyl)prop-2-yn-1-yl)amino)-6-(3-methyltetrahydrofuran-3-yl)pyrido[4,3-d]pyrimidin-7(6H)-one]	< 100 nM
C#C[C@@H](Nc1nc(C)nc2cc(=O)n([C@H]3C[C@H](F)C3)cc12)c1cccc(C(F)(F)F)c1C [Compound 10, 6-((1S,3S)-3-fluorocyclobutyl)-2-methyl-4-(((R)-1-(2-methyl-3-(trifluoromethyl)phenyl)prop-2-yn-1-yl)amino)pyrido[4,3-d]pyrimidin-7(6H)-one]	< 100 nM
C#C[C@@H](Nc1nc(C)nc2cc(=O)n(C3CC(F)(F)C3)cc12)c1cccc(C(F)(F)F)c1C [Compound 11, (R)-6-(3,3-difluorocyclobutyl)-2-methyl-4-((1-(2-methyl-3-(trifluoromethyl)phenyl)prop-2-yn-1-yl)amino)pyrido[4,3-d]pyrimidin-7(6H)-one]	< 100 nM
C#C[C@@H](Nc1nc(C)nc2c(F)c(=O)n(C3(C(F)F)CC3)cc12)c1cccc(C(F)(F)F)c1C [Compound 14, (R)-6-(1-(difluoromethyl)cyclopropyl)-8-fluoro-2-methyl-4-((1-(2-methyl-3-(trifluoromethyl)phenyl)prop-2-yn-1-yl)amino)pyrido[4,3-d]pyrimidin-7(6H)-one]	< 100 nM
C#C[C@@H](Nc1nc(C)nc2cc(=O)n(N[C@H]3CCOC3)cc12)c1cccc(C(F)F)c1C [Compound 16, 4-(((R)-1-(3-(difluoromethyl)-2-methylphenyl)prop-2-yn-1-yl)amino)-2-methyl-6-(((S)-tetrahydrofuran-3-yl)amino)pyrido[4,3-d]pyrimidin-7(6H)-one]	100 to 200 nM
C#C[C@@H](Nc1nc(C)nc2cc(=O)n(C3(C)CC3)cc12)c1cccc(C(F)(F)F)c1C [Compound 18, (R)-2-methyl-4-((1-(2-methyl-3-(trifluoromethyl)phenyl)prop-2-yn-1-yl)amino)-6-(1-methylcyclopropyl)pyrido[4,3-d]pyrimidin-7(6H)-one]	< 100 nM
C#C[C@@H](Nc1nc(C)nc2cc(=O)n(C3(C)CC3)cc12)c1cccc(C(C)(F)F)c1F [Compound 19, (R)-4-((1-(3-(1,1-difluoroethyl)-2-fluorophenyl)prop-2-yn-1-yl)amino)-2-methyl-6-(1-methylcyclopropyl)pyrido[4,3-d]pyrimidin-7(6H)-one]	< 100 nM
C#C[C@@H](Nc1nc(C)nc2cc(=O)n(C3(C)CC3)cc12)c1cccc(C(F)F)c1F [Compound 20, (R)-4-((1-(3-(difluoromethyl)-2-fluorophenyl)prop-2-yn-1-yl)amino)-2-methyl-6-(1-methylcyclopropyl)pyrido[4,3-d]pyrimidin-7(6H)-one]	< 100 nM
C#C[C@@H](Nc1nc(C)nc2cc(=O)n(C3(C)CC3)cc12)c1cccc2c1OCC2(F)F [Compound 21, (R)-4-((1-(3,3-difluoro-2,3-dihydrobenzofuran-7-yl)prop-2-yn-1-yl)amino)-2-methyl-6-(1-methylcyclopropyl)pyrido[4,3-d]pyrimidin-7(6H)-one]	< 100 nM
C=C[C@@H](Nc1nc(C)nc2cc(=O)n(C3(C)CC3)cc12)c1cccc(C(F)(F)F)c1C [Compound 22, (R)-2-methyl-4-((1-(2-methyl-3-(trifluoromethyl)phenyl)allyl)amino)-6-(1-methylcyclopropyl)pyrido[4,3-d]pyrimidin-7(6H)-one]	< 100 nM
C#C[C@@H](Nc1nc(C)nc2cc(=O)n(C3(C)CC3)cc12)c1cccc2c1CCC2(F)F [Compound 23, (R)-4-((1-(1,1-difluoro-2,3-dihydro-1H-inden-4-yl)prop-2-yn-1-yl)amino)-2-methyl-6-(1-methylcyclopropyl)pyrido[4,3-d]pyrimidin-7(6H)-one]	< 100 nM

— patent publication US20220324862A1, “PYRIDOPYRIMIDINONE COMPOUNDS” (Acerand Therapeutics (USA) Limited, priority 2021, published 2022)
